This note sets out measurements from patent publication US9920030B2 (priority 2006, dated 2018).

Type in all cases: in vivo
For assay [1], the system named is Phytophthora infestans (the causal agent of tomato late blight). The experiment in a line: whole plant or invertebrate.
Assay [2] shares this test system. The experiment in a line: whole plant or invertebrate. The source holds these as a separate data set.
In assay [3] the test system is Plasmopara vilicola (the causal agent of grape downy mildew). The experiment in a line: Test A: grape downy mildew, test suspension sprayed on grape seedlings after inoculation, visual disease rating. In outline: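 Curative spray: spores applied first, plants kept 24 h in saturated air at 20 °C and dried before treatment, then 5 days at 20 °C plus 24 h saturated. Suspension: acetone (3% of volume) in 1:1 acetone/water, 250 ppm Trem 014, sprayed to run-off (200 ppm ≈ 500 g/ha); visual 0–100 control rating.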

Setting [4] is: compounds without asterisk (application rate not given), 100 = 100% disease control, 0 = no control relative to the controls.
[5] abbreviates: Phytophthora infestans, 96 h, read-out: Percent Disease Control, Test C.
[6] abbreviates: Phytophthora infestans, 144 h, read-out: Percent Disease Control, Test B.
Setting [7] is: Plasmopara, 144 h, * tested at 40 ppm, read-out: Percent Disease Control, Test A.

Read-outs that look alike come from different tables or passages of the source.

Consider `Cc1cc(C(F)(F)F)nn1CC(=O)N1CCC(c2nc(-c3cccc(Cl)c3)cs2)CC1` [Compound 123], for which, in assay [1] (setting [4]), the “Percent Disease Control, Test C” value is given as 0%. The “Percent Disease Control, Test B” value in assay [2] (setting [4]) was found to be 68%. Also, in assay [3] (setting [4]), the “Percent Disease Control, Test A” value was 95%.
For `Cc1cc(C(F)(F)F)nn1CC(=O)N1CCC(c2nc(-c3cccnc3)cs2)CC1` [Compound 124] the same measures were 26%, 98% and 8%.
In the same order, the values of `Cc1cc(C(F)(F)F)nn1CC(=O)N1CCC(c2nc(C3=NOC(c4ccc(O)c(O)c4)C3)cs2)CC1` (stereo not shown) [Compound 125] are 0%, 53% and 31%.
Take `O=C(Cn1nc(C(F)(F)F)cc1Br)N1CCC(c2nc(C3=NOC(c4ccccc4)C3)cs2)CC1` (stereo not shown) [Compound 126, 2-[5-bromo-3-(trifluoromethyl)-1H-pyrazol-1-yl]-1-[4-[4-(4,5-dihydro-5-phenyl-3-isoxazoly)-2-thiazolyl]-1-piperidinyl]ethanone]: the “Percent Disease Control, Test C” value in assay [1] (setting [4]) is on record as 99%. The “Percent Disease Control, Test B” value in assay [2] (setting [4]) is listed as 100%. The “Percent Disease Control, Test A” value in assay [3] (setting [4]) is recorded as 100%; in assay [3] (compounds without asterisk (application rate not given), 100 = 100% disease control, 0 = no control relative to the controls, listed as 11), 99%.
Consider `Cc1cc(C(F)(F)F)n(CC(=O)N2CCC(c3nc(C4=NOC(c5ccccc5)C4)cs3)CC2)n1` (stereo not shown) [Compound 128, 1-[4-[4-(4,5-dihydro-5-phenyl-3-isoxazolyl)-2-thiazolyl]-1-piperidinyl]-2-[3-methyl-5-(trifluoromethyl)-1H-pyrazol-1-yl]ethanone], for which the pest or weed control at 40 ppm turned out to be 99% in assay [1] (setting [5]), 100% in assay [2] (setting [6]) and 100% in assay [3] (setting [7]).
Regarding `Cc1cc(C(F)(F)F)nn1CC(=S)N1CCC(c2nc(C3=NOC(c4ccccc4)C3)cs2)CC1` (stereo not shown) [Compound 130, 1-[4-[4-(4,5-dihydro-5-phenyl-3-isoxazolyl)-2-thiazolyl]-1-piperidinyl]-2-[5-methyl-3-(trifluoromethyl)-1H-pyrazol-1-yl]ethanethione], the pest or weed control at 10 µg/mL in assay [1] (setting [5]) came to 99%; in assay [2] (setting [6]), 100%; in assay [3] (Plasmopara, 144 h, ** tested at l0 ppm, read-out: Percent Disease Control, Test A) it was 100%.
Turning to `COc1ccccc1C1CC(c2csc(C3CCN(C(=O)Cn4nc(C(F)(F)F)cc4C)CC3)n2)=NO1` (stereo not shown) [Compound 131], the “Percent Disease Control, Test C” value in assay [1] (* tested at 40 ppm) amounted to 99%. The “Percent Disease Control, Test B” value in assay [2] (* tested at 40 ppm) worked out at 100%. In addition, the “Percent Disease Control, Test A” value in assay [3] (* tested at 40 ppm) is recorded as 100%.
In the case of `Cc1cc(C(F)(F)F)nn1CC(=O)N1CCC(c2nc(C3=NOC(C)(c4cc(Cl)sc4Cl)C3)cs2)CC1` (stereo not shown) [Compound 132], the “Percent Disease Control, Test C” value in assay [1] (* tested at 40 ppm) worked out at 91%. For the same compound, in assay [2] (* tested at 40 ppm), the “Percent Disease Control, Test B” value came out at 100%. Moreover, the “Percent Disease Control, Test A” value in assay [3] (* tested at 40 ppm) is 85%.
For `Cc1ccc(C)c(C2CC(c3csc(C4CCN(C(=O)Cn5nc(C(F)(F)F)cc5C)CC4)n3)=NO2)c1` (stereo not shown) [Compound 133] the same measures were 99%, 100% and 100%.
Take `COC(=O)c1ccc(C2CC(c3csc(C4CCN(C(=O)Cn5nc(C(F)(F)F)cc5C)CC4)n3)=NO2)cc1` (stereo not shown) [Compound 134]: in assay [1] (* tested at 40 ppm), the “Percent Disease Control, Test C” value amounted to 66%. Moreover, the “Percent Disease Control, Test B” value in assay [2] (* tested at 40 ppm) is listed as 100%. Moreover, in assay [3] (* tested at 40 ppm), the “Percent Disease Control, Test A” value was found to be 90%.
In the same order, the values of `Cc1ccc(C2CC(c3csc(C4CCN(C(=O)Cn5nc(C(F)(F)F)cc5C)CC4)n3)=NO2)c(C)c1` (stereo not shown) [Compound 136] are 99%, 100% and 99%.
Consider `Cc1cc(C(F)(F)F)nn1CC(=O)N1CCC(c2nc(C3=NOC4(CCOc5ccccc54)C3)cs2)CC1` (stereo not shown) [Compound 137, 1-[4-[4-(2,3-dihydrospiro[4H-1-benzopyran-4,5′(4′H)-isoxazol]-3′-yl)-2-thiazolyl]-1-piperidinyl]-2-[5-methyl-3-(trifluoromethyl)-1H-pyrazol-1-yl]ethanone], for which the pest or weed control at 40 ppm in assay [1] (setting [5]) was 99%; in assay [2] (setting [6]) it was 100%; in assay [3] (setting [7]) it was 100%.
With `Cc1cc(C(F)(F)F)nn1CC(=O)N1CCC(c2nc(C3=NOC4(CCC(C(C)(C)C)CC4)C3)cs2)CC1` (stereo not shown) [Compound 138], the “Percent Disease Control, Test C” value in assay [1] (* tested at 40 ppm) came to 99%. Moreover, in assay [2] (* tested at 40 ppm), the “Percent Disease Control, Test B” value was 100%. The “Percent Disease Control, Test A” value in assay [3] (* tested at 40 ppm) amounted to 93%.
In the same order, the values of `Cc1cc(C(F)(F)F)nn1CC(=O)N1CCC(c2nc(C3=NOC(c4ccccc4)(c4ccccc4)C3)cs2)CC1` [Compound 139] are 87%, 98% and 87%.
For `COc1ccccc1C1(C)CC(c2csc(C3CCN(C(=O)Cn4nc(C(F)(F)F)cc4C)CC3)n2)=NO1` (stereo not shown) [Compound 140] the same measures were 57%, 100% and 98%.
For `COCC1(c2ccccc2)CC(c2csc(C3CCN(C(=O)Cn4nc(C(F)(F)F)cc4C)CC3)n2)=NO1` (stereo not shown) [Compound 141] the same measures were 99%, 100% and 99%.
Regarding `CSCC1(c2ccccc2)CC(c2csc(C3CCN(C(=O)Cn4nc(C(F)(F)F)cc4C)CC3)n2)=NO1` (stereo not shown) [Compound 142], the “Percent Disease Control, Test C” value in assay [1] (* tested at 40 ppm) stood at 98%. For the same compound, in assay [2] (* tested at 40 ppm), the “Percent Disease Control, Test B” value came to 100%. In assay [3] (* tested at 40 ppm), the “Percent Disease Control, Test A” value came out at 97%.
In the same order, the values of `Cc1cc(C(F)(F)F)nn1CC(=O)N1CCC(c2nc(C3=NOC(CS(C)(=O)=O)(c4ccccc4)C3)cs2)CC1` (stereo not shown) [Compound 143] are 99%, 100% and 99%.
As for `Cc1cc(C(F)(F)F)nn1CC(=O)N1CCC(c2nc(C3=NOC(C[S+](C)[O-])(c4ccccc4)C3)cs2)CC1` (stereo not shown) [Compound 144], in assay [1] (* tested at 40 ppm), the “Percent Disease Control, Test C” value is 93%. Also, in assay [2] (* tested at 40 ppm), the “Percent Disease Control, Test B” value came out at 100%. Moreover, the “Percent Disease Control, Test A” value in assay [3] (* tested at 40 ppm) was determined as 99%.
In the case of `Cc1cc(C(F)(F)F)nn1CC(=O)N1CCC(c2nc(C3=CC(C)(c4ccccc4)OC3=O)cs2)CC1` (stereo not shown) [Compound 145], in assay [1] (setting [4]), the “Percent Disease Control, Test C” value is listed as 0%. Moreover, the “Percent Disease Control, Test B” value in assay [2] (setting [4]) was determined as 58%. Besides, the “Percent Disease Control, Test A” value in assay [3] (setting [4]) is reported as 17%.
In the same order, the values of `Cc1c(C2(C)CC(c3csc(C4CCN(C(=O)Cn5nc(C(F)(F)F)cc5C)CC4)n3)=NO2)sc2cccc(Cl)c12` (stereo not shown) [Compound 146] are 53%, 100% and 83%.
`Cc1cc(C(F)(F)F)nn1CC(=O)N1CCC(c2nc(C3=NOC(C)(c4csc5ccccc45)C3)cs2)CC1` (stereo not shown) [Compound 147]: the “Percent Disease Control, Test C” value in assay [1] (* tested at 40 ppm) came to 95%. Besides, in assay [2] (* tested at 40 ppm), the “Percent Disease Control, Test B” value stood at 100%. Besides, in assay [3] (* tested at 40 ppm), the “Percent Disease Control, Test A” value is on record as 100%.
As to `Cc1cc(C(F)(F)F)nn1CC(=O)N1CCC(c2nc(C3=NOC(c4ccsc4)C3)cs2)CC1` (stereo not shown) [Compound 148], in assay [1] (** tested at l0 ppm), the “Percent Disease Control, Test C” value stood at 99%. Besides, the “Percent Disease Control, Test B” value in assay [2] (** tested at l0 ppm) was found to be 100%. For the same compound, the “Percent Disease Control, Test A” value in assay [3] (** tested at l0 ppm) was 100%.
Consider `Cc1cc(C(F)(F)F)nn1CC(=O)N1CCN(c2nc(C3=NOC(c4ccccc4)C3)cs2)CC1` (stereo not shown) [Compound 154, 1-[4-[4-(4,5-dihydro-5-phenyl-3-isoxazolyl)-2-thiazolyl]-1-piperazinyl]-2-[5-methyl-3-(trifluoromethyl)-1H-pyrazol-1-yl]ethanone], for which the pest or weed control at 40 ppm in assay [1] (setting [5]) was determined as 99%; in assay [2] (setting [6]), 100%; in assay [3] (setting [7]) it was 90%.
As for `CC(=O)OCC1(c2ccccc2)CC(c2csc(C3CCN(C(=O)Cn4nc(C(F)(F)F)cc4C)CC3)n2)=NO1` (stereo not shown) [Compound 156], the “Percent Disease Control, Test C” value in assay [1] (* tested at 40 ppm) is given as 99%. The “Percent Disease Control, Test B” value in assay [2] (* tested at 40 ppm) was determined as 100%. In addition, the “Percent Disease Control, Test A” value in assay [3] (* tested at 40 ppm) is on record as 100%.
Regarding `Cc1cc(C(F)(F)F)nn1CC(=O)N1CCC(c2nc(C3=NOC(CO)(c4ccccc4)C3)cs2)CC1` (stereo not shown) [Compound 159], the “Percent Disease Control, Test C” value in assay [1] (setting [4]) is 99%. In assay [2] (setting [4]), the “Percent Disease Control, Test B” value stood at 100%. Besides, the “Percent Disease Control, Test A” value in assay [3] (setting [4]) amounted to 94%.
In the same order, the values of `Cc1cc(C(F)(F)F)nn1CC(=O)N1CCC(c2nc(Cn3ccc(-c4ccccc4)n3)cs2)CC1` [Compound 160] are 17%, 80% and 68%.
Take `Cc1ccccc1[C@H]1CC(c2csc(C3CCN(C(=O)Cn4nc(C(F)(F)F)cc4C)CC3)n2)=NO1` [Compound 161, 1-[4-[4-[(5R)-4,5-dihydro-5-(2-methylphenyl)-3-isoxazolyl]-2-thiazolyl]-1-piperidinyl]-2-[5-methyl-3-(trifluoromethyl)-1H-pyrazol-1-yl]ethanone]: the results for the pest or weed control at 40 ppm in assay [1] (setting [5]), in assay [2] (setting [6]) and in assay [3] (setting [7]) were 99%, 100% and 100%, respectively.
On to `Cc1cc(C(F)(F)F)nn1CC(=O)N1CCC(c2nc(C3=NOC(c4cccs4)C3)cs2)CC1` (stereo not shown) [Compound 162], for which the “Percent Disease Control, Test C” value in assay [1] (* tested at 40 ppm) was 99%. Also, the “Percent Disease Control, Test B” value in assay [2] (* tested at 40 ppm) is reported as 100%. Also, the “Percent Disease Control, Test A” value in assay [3] (* tested at 40 ppm) was determined as 100%.
